Reference: paper PMC11798738, “Targeting ASK1 by CS17919 alleviates kidney‐ and liver‐related diseases in murine models” (Animal Models and Experimental Medicine, 2024)

Assays:
[1] = test system: L02 cells; assay: Effects of the drugs on L02 cells (Figure S1C); assay type: cell-based, human; conditions: 0.3–10 μmol/L
Protocol: FIGURE S1 (A) Chemical structural formulae of CS17919 and GS-4997. (B) Viability of L02 cells 72 h after 25–800 μmol/L (2-fold dilution) PA stimulation. (C) The effects of CS17919 and GS-4997 at different doses (0.3–10 μmol/L) on L02 cells. (D) Kidney weights in the UUO model. (E) Renal coefficients in the DKD model. (F) Urine ALB in the DKD model. (G) Liver weights in the NASH model. *: PA vs. Blank; GS-4997 vs. DMSO; Treatment vs. Model. #: CS17919 vs. DMSO; Control vs. Model. * p < 0.05, ## p < 0.01, *** p < 0.001, #### and **** p < 0.0001 were obtained by one-way ANOVA.

[2] = test system: CCC‐HEL‐1; assay: MTS cytotoxicity assay, CCC-HEL-1; assay type: cell-based, human; conditions: 72 h
Protocol: Human embryonic kidney cells (HEK‐293A), human hepatocellular carcinoma cells (HUH7), human embryonic liver diploid cells (CCC‐HEL‐1) and human embryonic lung cells (MRC‐5) were selected for the cytotoxicity study of both drugs, using the MTS assay protocol. Cells were cultured at 37°C with 5% CO2 using an appropriate medium. […] After 72 h of incubation, 30 μL of MTS solution was added to each well, and the cells were then incubated for 2–4 h in the dark. The absorbance value of each well at 490 nm was measured using an enzymatic plate reader and the IC50 for each drug and each cell line was calculated. Cell viability and cytoxicity experiments were repeated three times.

[3] = Pharmacokinetic study in mice, oral; assay type: in vivo, C57BL/6J mice; conditions: mouse plasma, mean ± SD, n = 3
Protocol: Male C57BL/6J mice (Beijing Huafukang Biotechnology Co., Ltd, Beijing, China) were selected at 6–8 weeks for the experiment. […] About 50–60 μL of blood and tissue were isolated in anticoagulation tubes at 15, 30 min, 1, 2, 4, 6, and 8 h after administration, respectively, and then centrifuged at 5000 r/min for 7 min at 4°C. […] The standard solution was prepared with 7 concentrations and QC with 3. The standard and QC working solutions were added to the 96‐well plate, and the protein was precipitated by adding acetonitrile solution containing the internal standard together with the sample to be tested. After shaking for 10 min and centrifugation at 12 000 × g for 10 min, the supernatants from the 96‐well plate were analyzed by LC–MS (mobile phase: 0.1% formic acid‐water 0.1% formic acid‐acetonitrile). Raw data were imported into Phoenix WinNonlin to calculate AUC, C max, T 1/2, etc.

[4] = test system: UUO mouse model; assay: UUO mouse model of kidney injury and fibrosis; assay type: in vivo, C57BL/6J mice
Protocol: 55 C57BL/6J mice, male, 6–8 weeks old were purchased from Chengdu Pharmachem Biotechnology Co. (Chengdu, China) and randomly divided into 5 groups according to their body weight: Sham (n = 10), Model (n = 15), CS17919L (10 mg/kg, n = 10), CS17919H (60 mg/kg, n = 10), and GS‐4997 (30 mg/kg, n = 10). The mice were anesthetized and fixed on the operating table, and the abdominal cortex and muscles were cut in the middle of the right side of the abdomen, and the ureter was searched for along the renal hilum. The ureter was separated using a glass split‐needle and ligated at the opening of the renal pelvis and the upper 1/3 of the ureter, and the ureter was cut between the two ligatures. Finally, the muscle and skin were closed with consecutive sutures, and animals were kept under observation until they awoke. Both the Sham and the Model group received solvent (0.2% CMC‐Na + 0.1% Tween‐80) orally twice daily. CS17919 and GS‐4997 were administered by gavage twice daily at the corresponding doses for 11 days. All treatments were started one day before surgical operation. All mice were sacrificed one day after administration with overnight fasting. Blood was collected, and serum was isolated for the analysis of urea nitrogen and creatinine. The kidney of each mouse was removed, weighed and fixed in 10% formalin solution for pathological study.
Masson staining was applied to determine kidney fibrosis in the UUO model. Thin 4 μm paraffin sections of each sample were used in this study, which followed the standard procedure. The sections were stained with Hematoxylin staining solution for 5–10 min and then washed, followed by staining with Ponceau S‐acid fuchsin stain for around 5–10 min. The sections were treated with 1% phosphomolybdic acid and Aniline Blue solution, and finally dehydrated stepwise in alcohol and sealed. VIS7.0 software was used to analyze the area of kidney fibrosis and the percentage of the fibrosis area in the scanning area was calculated.

[5] = test system: DKD mouse model; assay: STZ + HFD-induced DKD mouse model; assay type: in vivo, mice; conditions: 50 mg/kg gavage twice a day, ten weeks
Protocol: 26 male neonatal mice were purchased from Chengdu Pharmachem Biotechnology Co., 5 of which were assigned to the control group and fed a chow diet. The other 21 mice were subcutaneously injected with STZ ([…]) 48 h after birth. After 4 weeks, these mice were fed a high‐fat diet (HFD, Research Diet, New Brunswick, NJ, USA) and randomly subdivided into two groups based on blood glucose level followed by 6 h of fasting: Model (n = 11) and CS17919 (n = 10). Both the control and model groups were given the solvent mentioned above, administered orally twice a day, while CS17919 was administered twice a day by gavage at a dose of 50 mg/kg for 70 days. Body weight measurements were performed twice a week during the administration period. 24‐h urine was collected for each mouse 2 days before sacrifice. Creatinine clearance was calculated using the following formula: creatinine clearance = urinary creatinine (mg/dL) × urine volume per minute (ml/min)/blood creatinine (mg/dL). Fasting blood glucose was measured before sacrifice. After a 10‐week drug intervention, mice were sacrificed, and blood was collected to isolate serum for the urea nitrogen and serum creatinine test. The kidneys of each mouse were then removed, weighed and fixed in 10% formalin solution for pathological study.
PAS staining was applied to determine kidney glomerular sclerosis in the DKD model. Thin 4 μm paraffin sections of each sample were used in this study, which followed the standard procedure. Periodic acid‐treated paraffin sections were stained using Schiff for 10 min, after rinsing the residual acid. Hematoxylin staining was performed for 3 min, and the samples were then dehydrated and sealed. The PAS score was calculated by semiquantitative analysis as follows: 0, without sclerosis; 1, 1%–25% sclerosis area; 2, 26%–50% sclerosis area; 3, 51%–75% sclerosis area; 4, >75% sclerosis area.

[6] = molecular target: CYP 2C19 (Homo sapiens, UniProt P33261); assay: CYP inhibition in vitro; assay type: in vitro ADME
Sequence of CYP 2C19 (P33261 whole entry): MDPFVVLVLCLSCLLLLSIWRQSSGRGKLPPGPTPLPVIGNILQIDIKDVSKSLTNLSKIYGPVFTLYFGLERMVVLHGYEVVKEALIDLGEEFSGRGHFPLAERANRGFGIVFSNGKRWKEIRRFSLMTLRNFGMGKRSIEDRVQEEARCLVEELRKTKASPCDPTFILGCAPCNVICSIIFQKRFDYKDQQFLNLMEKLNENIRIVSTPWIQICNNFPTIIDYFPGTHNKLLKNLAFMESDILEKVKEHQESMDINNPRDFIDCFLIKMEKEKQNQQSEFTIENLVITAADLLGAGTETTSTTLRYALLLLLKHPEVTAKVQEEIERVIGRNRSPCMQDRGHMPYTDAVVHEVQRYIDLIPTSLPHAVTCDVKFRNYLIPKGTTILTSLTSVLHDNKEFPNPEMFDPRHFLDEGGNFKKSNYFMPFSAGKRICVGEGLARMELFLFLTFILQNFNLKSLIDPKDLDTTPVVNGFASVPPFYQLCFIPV

[7] = molecular target: CYP 2D6 (Homo sapiens, UniProt P10635); assay: CYP inhibition in vitro; assay type: in vitro ADME
Sequence of CYP 2D6 (P10635 whole entry): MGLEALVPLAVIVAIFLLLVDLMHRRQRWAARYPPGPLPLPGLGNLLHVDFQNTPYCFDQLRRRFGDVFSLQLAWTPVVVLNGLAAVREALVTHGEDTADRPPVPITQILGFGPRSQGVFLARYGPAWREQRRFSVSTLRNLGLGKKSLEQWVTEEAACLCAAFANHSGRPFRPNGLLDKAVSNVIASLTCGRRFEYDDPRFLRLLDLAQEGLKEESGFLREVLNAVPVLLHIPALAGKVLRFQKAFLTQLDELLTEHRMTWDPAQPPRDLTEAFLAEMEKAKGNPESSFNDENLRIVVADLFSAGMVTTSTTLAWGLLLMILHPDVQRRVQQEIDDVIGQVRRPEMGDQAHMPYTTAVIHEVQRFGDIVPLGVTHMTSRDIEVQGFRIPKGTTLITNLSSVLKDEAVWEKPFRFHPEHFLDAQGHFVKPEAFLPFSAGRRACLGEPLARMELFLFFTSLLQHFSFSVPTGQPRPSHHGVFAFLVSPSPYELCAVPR

[8] = Metabolic stability in liver microsomes; assay type: in vitro ADME; conditions: Human
[9] = Metabolic stability in liver microsomes; assay type: in vitro ADME; conditions: Rat
[10] = molecular target: CYP 1A2 (Homo sapiens, UniProt P05177)
Sequence of CYP 1A2 (P05177 whole entry): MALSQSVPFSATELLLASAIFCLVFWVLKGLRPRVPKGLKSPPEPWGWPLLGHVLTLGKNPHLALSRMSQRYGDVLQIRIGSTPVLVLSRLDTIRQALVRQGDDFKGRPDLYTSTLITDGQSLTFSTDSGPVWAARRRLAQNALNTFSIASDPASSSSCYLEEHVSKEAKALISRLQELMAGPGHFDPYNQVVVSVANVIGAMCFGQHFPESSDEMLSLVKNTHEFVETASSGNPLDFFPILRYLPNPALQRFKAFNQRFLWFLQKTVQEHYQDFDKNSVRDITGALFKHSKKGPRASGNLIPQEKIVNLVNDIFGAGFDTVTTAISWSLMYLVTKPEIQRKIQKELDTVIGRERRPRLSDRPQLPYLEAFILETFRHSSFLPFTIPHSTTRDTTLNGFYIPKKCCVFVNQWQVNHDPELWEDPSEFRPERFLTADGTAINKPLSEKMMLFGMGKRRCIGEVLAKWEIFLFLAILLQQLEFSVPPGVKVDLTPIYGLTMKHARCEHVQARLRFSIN

[11] = molecular target: CYP3A4 (Homo sapiens, UniProt P08684)
Sequence of CYP3A4 (P08684 whole entry): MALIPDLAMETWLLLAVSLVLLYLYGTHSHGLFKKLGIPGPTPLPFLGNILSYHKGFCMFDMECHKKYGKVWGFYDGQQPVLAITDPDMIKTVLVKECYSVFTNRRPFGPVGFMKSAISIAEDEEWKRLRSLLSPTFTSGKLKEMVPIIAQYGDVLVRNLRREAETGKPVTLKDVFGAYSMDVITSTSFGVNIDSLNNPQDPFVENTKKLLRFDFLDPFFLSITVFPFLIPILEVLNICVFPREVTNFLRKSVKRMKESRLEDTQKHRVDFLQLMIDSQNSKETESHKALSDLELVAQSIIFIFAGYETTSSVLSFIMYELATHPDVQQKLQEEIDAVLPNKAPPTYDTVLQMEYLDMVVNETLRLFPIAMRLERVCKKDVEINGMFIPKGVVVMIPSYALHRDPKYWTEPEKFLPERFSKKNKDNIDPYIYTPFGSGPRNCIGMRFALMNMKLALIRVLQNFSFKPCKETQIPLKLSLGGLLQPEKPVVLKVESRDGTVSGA

[12] = CS17919 10 and 60 mg/kg, GS-4997 30 mg/kg, gavage twice daily, 11 days

Question: With `Cc1cc(F)c(C(=O)Nc2cccc(-c3nncn3[C@H](C)C(F)(F)F)n2)cc1NC(=O)C1CC1` [CS17919] as the compound, how does the “Safety in L02 cells” value [1] read?
Answer: The value was “safer than GS‐4997”.

Question: What about the “Cytotoxicity (cell viability)” value [2] of the same compound?
Answer: The value was “barely affected cell viability”.

Question: What about the Cmax ([3]; 20 mg/kg p.o.) of the same compound?
Answer: Its Cmax is 4039 ± 646.90 ng/mL.

Question: What about the “MRT0–∞” value ([3]; 20 mg/kg p.o.) of the same compound?
Answer: Its value is 3.96 ± 0.91 h.

Question: What about the “T 1/2” value ([3]; 20 mg/kg p.o.) of the same compound?
Answer: The value was 2.20 ± 0.74 h.

Question: And the T max ([3]; 20 mg/kg p.o.)?
Answer: Its T max is 1.50 ± 0.87 h.

Question: What about the Cmax ([3]; 50 mg/kg p.o.) of the same compound?
Answer: Its Cmax is 5741 ± 1835 ng/mL.

Question: And the “MRT0–∞” value ([3]; 50 mg/kg p.o.)?
Answer: Its value is 6.43 ± 1.44 h.

Question: And the “T 1/2” value ([3]; 50 mg/kg p.o.)?
Answer: The value was 3.50 ± 1.86 h.

Question: And the T max ([3]; 50 mg/kg p.o.)?
Answer: Its T max is 2.00 ± 0 h.

Question: What about the “Area of kidney fibrosis (Masson staining)” value [4, 12] of the same compound?
Answer: Its value is “tendency to reduce”.

Question: What about the “Serum creatinine vs model group” value [4, 12] of the same compound?
Answer: The value was “non‐significant tendency to decrease”.

Question: And the “Serum urea nitrogen vs model group” value [4, 12]?
Answer: Its value is “significantly reduced”.

Question: And the “Inflammatory infiltration and interstitial fibrosis scores (H&E)” value ([4]; CS17919 high-dose group (60 mg/kg twice daily, 11 days))?
Answer: The value was “improved significantly”.

Question: What about the Blood glucose [5] of the same compound?
Answer: The Blood glucose was “mildly reduced”.

Question: What about the Body weight [5] of the same compound?
Answer: The Body weight was “slight weight loss”.

Question: What about the Creatinine clearance [5] of the same compound?
Answer: Its Creatinine clearance is “non‐significant tendency to improve”.

Question: And the “Glomerular sclerosis score (PAS staining) vs model group” value [5]?
Answer: Its value is “significantly reduced”.

Question: And the “Insulin sensitivity (serum insulin) vs model group” value [5]?
Answer: Its value is “slightly increased”.

Question: What about the Renal coefficients [5] of the same compound?
Answer: The Renal coefficients was “improved”.

Question: And the Serum creatinine [5]?
Answer: Its Serum creatinine is “significantly lowered”.

Question: And the Serum urea nitrogen [5]?
Answer: Its Serum urea nitrogen is “non‐significant tendency to reduce”.

Question: What about the IC50 [6] of the same compound?
Answer: Its IC50 is greater than 10 µM.

Question: And the IC50 [7]?
Answer: Its IC50 is greater than 10 µM.

Question: What about the “T1/2 in liver microsomes” value [8] of the same compound?
Answer: The value was “>145 min”.

Question: And the “T1/2 in liver microsomes” value [9]?
Answer: The value was “>145 min”.

Question: What about the IC50 [10] of the same compound?
Answer: Its IC50 is greater than 10 µM.

Question: What about the IC50 [11] of the same compound?
Answer: The IC50 was greater than 10 µM.
